Common to all, as to assay: NCI tumour cell line growth inhibition, 48 h
Assay [1] relates to RPMI-8226 leukemia.
Assay [2] concerns OVCAR-4 ovarian.
Assay [3] has as its system TK-10 renal.
In assay [4] the test system is HOP-92 NSCLC.
Assay [5] concerns SN12C renal.
Assay [6] relates to RXF 393 renal.
Assay [7] deals with SF-295 CNS.
Assay [8] has as its system NCI-H522 lung.
Assay [9] relates to OVCAR-5 ovarian.
Assay [10] has as its system HL-60(TB) leukemia.

From PubChem BioAssay (NCI) come the findings set out here.

Values joined by “and” are separate entries in the source; they are usually repeats but may differ in a detail not shown here. Equal values may be shown once.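 How tested: cells in 96-well plates exposed to compound for 48 hours at five concentrations. GI50 is the concentration that inhibits growth by half. TGI: total growth inhibition.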

Take `COc1cccc(NC(=O)CC(=O)NN2C(=O)/C(=C/c3ccc(N(CCC#N)CCC#N)cc3)N=C2c2cc([N+](=O)[O-])ccc2Cl)c1`: the TGI in [1], in assay [2], in assay [3], in assay [4], in assay [5] and in [6] was above 100 µM each time. Moreover, the TGI was above 100 µM in assay [7], above 100 µM in assay [8] and 72.3 µM in assay [9].

Take `C/C(=C\C(=N\NC(=N)N)c1ccccc1)c1ccccc1`: the TGI in assay [1] came out at 8.41 µM; in [2], 3.16 µM; in [3] it was 14.1 µM; in assay [4] it was 3.22 µM; in [5] it was 3.09 µM; in [6], 8.42 µM. Besides, the TGI is 1.87 µM in assay [7], 1.76 µM in assay [8] and 3.35 µM in assay [9].

Consider `Cc1cn(Cc2cn(CC3OC(n4cc(C)c(=O)[nH]c4=O)CC3O)nn2)c(=O)[nH]c1=O` (centres undefined), for which the TGI in assay [1], in [2], in assay [3], in assay [5], in assay [6] and in assay [7] was above 100 µM throughout. The compound also gave a TGI in [9] above 100 µM.

With `C[C@H]1CCC/C=C/[C@@H]2C[C@H](O)C[C@H]2[C@H](O)/C=C/C(=O)O1`, the GI50 in assay [1] is 0.0345 µM and 0.0737 µM and 0.11 µM; in assay [2] it was 0.0312 µM; in [5], 0.0294 µM and 0.0846 µM and 0.0485 µM; in assay [7], < 0.0181 µM and 0.0524 µM and 0.12 µM; in [8], 0.044 µM and 0.0952 µM and 0.115 µM; in assay [10], 0.0281 µM and 0.167 µM and 0.115 µM. Further, in assay [9], the GI50 is 0.0857 µM. In addition, the TGI in assay [2] was 5.62 µM and > 49.1 µM; in assay [3], 2.57 µM and 0.362 µM and 1 µM; in assay [5], 3.95 µM and 0.491 µM; in assay [6] it was 0.0481 µM and 0.053 µM and 0.0188 µM; in [8] it was 0.208 µM and 0.213 µM and 0.354 µM; in assay [10], 1.82 µM and > 15.2 µM.

`O=c1c(-c2ccccc2)c(SCCN2CCOCC2)n(-c2ccccc2)c(=S)n1-c1ccccc1`: the TGI in assay [1], in assay [2], in assay [3], in assay [4], in [6] and in [7] was above 100 µM throughout. Moreover, the TGI in [8], in assay [10] and in assay [9] was above 100 µM in each case.

Consider `CCCCCCCCCCCCCCCCCC(=O)OCC1OC(OC)C(NC(=O)N(CCCl)N=O)C(O)C1O` (centres undefined), for which the TGI in assay [1] is 85.8 µM; in [2], 76.1 µM; in assay [3], above 100 µM; in [5], 30.3 µM; in assay [6], 32.1 µM; in [7], 32.6 µM. Further, the TGI in assay [8] is 38.3 µM; in assay [9], above 100 µM.

As to `O=c1[nH]c(=O)n(CCOCP(=O)(O)O)nc1Br`, the TGI in assay [1], in [3], in assay [4], in [5], in assay [6] and in assay [8] was above 100 µM throughout. For the same compound, the TGI in [10] and in assay [9] was above 100 µM throughout.

With `Cc1cc2c(cc1Cl)SC(c1ccccc1O)NS2(=O)=O` (centres undefined), the TGI in [2], in assay [3], in [4], in assay [5], in [6] and in [7] was above 100 µM throughout. Moreover, the TGI in assay [8], in assay [10] and in assay [9] was above 100 µM throughout.

For the compound `CCCCCCCCCCCCSC(=S)c1c(C)[nH]n(CCCCCCCCCCCC)c1=O`, the TGI in assay [1], in assay [2], in assay [5], in assay [7], in assay [8] and in assay [10] was above 100 µM throughout. In assay [9], this compound returned a TGI above 100 µM.

As to `COP(=O)(OC)[C@H](O)[C@H]1C[C@@H]1c1ccccc1`, the TGI in assay [1], in [2], in [3], in assay [4], in assay [6] and in [7] was above 100 µM throughout. Further, the TGI in assay [8], in assay [10] and in [9] was above 100 µM in each case.

Take `O=C(NC(Cc1ccc(Cl)cc1)C(=O)O)c1ccc(I)cc1` (centres undefined): the TGI in assay [1], in assay [2], in [4], in [5], in assay [6] and in assay [7] was above 100 µM throughout. The TGI in assay [8], in [10] and in assay [9] was above 100 µM throughout.

In the case of `Cc1ccc2c3c1[C@@H]1O[C@@H]1c1cccc(c1-3)[C@@H]1O[C@H]21`, the TGI is 33.3 µM in assay [2]; 38.5 µM in assay [3]; 36.8 µM in [4]; 25.5 µM in assay [5]; 31.4 µM in assay [7]; 29.6 µM in assay [8]. In addition, the TGI in assay [9] was 34 µM.
